In patent US20250230193A1, “CYCLIC COMPOUND HAVING SELECTIVE KRAS INHIBITORY EFFECT ON HRAS AND NRAS” (CHUGAI SEIYAKU KABUSHIKI KAISHA, priority 2022, published 2025):

Tests used:
[1] = target: GDP-bound NRAS wild-type protein (Homo sapiens, UniProt P01111); assay: Binding to NRAS by surface plasmon resonance (SPR), Single Cycle Kinetics; details: SPR; for NRAS/KRAS (ratio of KD value for NRAS to KD value for KRAS) / NRAS/KRAS (ratio of KD value with respect to NRAS to KD value with respect to KRAS): GDP-bound NRAS wild-type vs GDP-bound KRAS wild-type
[2] = target: GDP-bound HRAS wild-type protein (Homo sapiens, UniProt P01112); assay: Binding to HRAS by surface plasmon resonance (SPR), Single Cycle Kinetics; details: SPR; for HRAS/KRAS (ratio of KD value for HRAS to KD value for KRAS) / HRAS/KRAS (ratio of KD value with respect to HRAS to KD value with respect to KRAS): GDP-bound HRAS wild-type vs GDP-bound KRAS wild-type
Sequence of GDP-bound HRAS wild-type protein (P01112 whole entry): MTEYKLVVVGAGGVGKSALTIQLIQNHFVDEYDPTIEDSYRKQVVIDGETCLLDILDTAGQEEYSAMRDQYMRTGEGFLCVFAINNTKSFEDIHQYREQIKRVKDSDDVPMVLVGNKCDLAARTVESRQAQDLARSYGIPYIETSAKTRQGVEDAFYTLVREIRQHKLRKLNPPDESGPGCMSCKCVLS

Sequence of GDP-bound NRAS wild-type protein (P01111 whole entry): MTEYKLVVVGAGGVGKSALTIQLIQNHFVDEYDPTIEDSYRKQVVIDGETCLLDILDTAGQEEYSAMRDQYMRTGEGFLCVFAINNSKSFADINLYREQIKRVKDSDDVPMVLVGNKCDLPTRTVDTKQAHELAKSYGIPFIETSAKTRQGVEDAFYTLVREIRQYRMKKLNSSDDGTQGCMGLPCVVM

CCO[C@@H]1C[C@H]2C(=O)NC3(CCC3)C(=O)N(C)[C@@H](C3CCCC3)C(=O)N(C)[C@H](C(=O)N(C)CC)CC(=O)N(C)[C@@H](CC3CC3)C(=O)N[C@@H]([C@@H](C)CC)C(=O)N(C)CC(=O)N(C)[C@H]3C/C=C\CCN(C3=O)[C@@H](Cc3ccc(C)cc3)C(=O)N(C)CC(=O)N[C@@H](CCc3ccc(C(F)(F)F)c(OC)c3)C(=O)N2C1 [PP1879]
NRAS/KRAS (ratio of KD value for NRAS to KD value for KRAS) ([1]; KD ratio): A (a compound having 10 or more and less than 20 is denoted as A)
HRAS/KRAS (ratio of KD value for HRAS to KD value for KRAS) ([2]; KD ratio): B (a compound having 3 or more and less than 10 is denoted as B)

CC[C@H](C)[C@@H]1NC(=O)[C@H](C)N(C)C(=O)C[C@@H](C(=O)N(C)C)N(C)C(=O)[C@H](C2CCCC2)N(C)C(=O)C2(CCCC2)NC(=O)[C@@H]2CC(F)(F)CN2C(=O)[C@H](CCc2cc(F)c(C(F)(F)F)c(F)c2)NC(=O)CN(C)C(=O)[C@H](Cc2ccc(C(F)(F)F)cc2)N2CCCC[C@@H](C2=O)N(C)C(=O)CN(C)C1=O [PP0583]
NRAS/KRAS (ratio of KD value with respect to GDP-bound NRAS wild-type protein to KD value with respect to KRAS) [1]: C (A compound having a KD ratio of 0.1 or more and less than 3 is denoted as C)
HRAS/KRAS (ratio of KD value with respect to GDP-bound HRAS wild-type protein to KD value with respect to KRAS) [2]: C (A compound having a KD ratio of 0.1 or more and less than 3 is denoted as C)

CCO[C@@H]1C[C@H]2C(=O)NC3(CC(C)(C)C3)C(=O)N(C)[C@@H](C3CCCC3)C(=O)N(C)[C@H](C(=O)N(C)C)CC(=O)N(C)[C@@H](CC3CCC3)C(=O)N[C@@H]([C@@H](C)CC)C(=O)N(C)CC(=O)N(C)[C@H]3C/C=C\CCN(C3=O)[C@@H](Cc3ccc(C(F)(F)F)cc3)C(=O)N(C)CC(=O)N[C@@H](CCc3cc(F)c(C(F)(F)F)c(F)c3)C(=O)N2C1 [PP1651]
NRAS/KRAS (ratio of KD value for NRAS to KD value for KRAS) ([1]; KD ratio): A (a compound having 10 or more and less than 20 is denoted as A)
HRAS/KRAS (ratio of KD value for HRAS to KD value for KRAS) ([2]; KD ratio): B (a compound having 3 or more and less than 10 is denoted as B)

CCO[C@@H]1C[C@H]2C(=O)NC3(CCC3)C(=O)N(C)[C@@H](C3CCCC3)C(=O)N(C)[C@H](C(=O)N3C[C@@H](C)O[C@@H](C)C3)CC(=O)N(C)[C@@H](CC(C)C)C(=O)N[C@@H]([C@@H](C)CC)C(=O)N(C)CC(=O)N(C)[C@H]3CCCCCN(C3=O)[C@@H](Cc3ccc(F)cc3)C(=O)N(C)CC(=O)N[C@@H](CCc3ccc(C(F)(F)F)c(Cl)c3)C(=O)N2C1 [PP1153]
NRAS/KRAS (ratio of KD value with respect to NRAS to KD value with respect to KRAS) ([1]; KD ratio): B (a compound having 3 or more and less than 10 is denoted as B)
HRAS/KRAS (ratio of KD value with respect to HRAS to KD value with respect to KRAS) ([2]; KD ratio): B (a compound having 3 or more and less than 10 is denoted as B)

CCCN1CC(=O)N(C)[C@H]2C/C=C\CCN(C2=O)[C@@H](Cc2ccc(C)cc2)C(=O)N(C)CC(=O)N[C@@H](CCc2ccc(C(F)(F)F)c(OC)c2)C(=O)N2C[C@H](OCC)C[C@H]2C(=O)NC2(CC(C)(C)C2)C(=O)N(C)[C@@H](C2CCCC2)C(=O)N(C)[C@H](C(=O)N(C)C)CC(=O)N(C)[C@@H](CC)C(=O)N[C@@H]([C@@H](C)CC)C1=O [PP2096]
NRAS/KRAS (ratio of KD value with respect to NRAS to KD value with respect to KRAS) [1]: A (a compound having 10 or more and less than 20 is denoted as A)
HRAS/KRAS (ratio of KD value with respect to HRAS to KD value with respect to KRAS) [2]: A (a compound having 10 or more and less than 20 is denoted as A)

C#CC[C@H]1C(=O)N[C@@H]([C@@H](C)CC)C(=O)N(C)CC(=O)N(C)[C@H]2CCCCCN(C2=O)[C@@H](Cc2ccc(C(F)(F)F)cc2)C(=O)N(C)CC(=O)N[C@@H](CCc2cc(F)c(C(F)(F)F)c(F)c2)C(=O)N2C[C@H](OCC)C[C@H]2C(=O)NC2(CCC2)C(=O)N(C)[C@@H](C2CCCC2)C(=O)N(C)[C@H](C(=O)N(C)C)CC(=O)N1C [PP0666]
NRAS/KRAS (ratio of KD value with respect to GDP-bound NRAS wild-type protein to KD value with respect to KRAS) [1]: B (a compound having 3 or more and less than 10 is denoted as B)
HRAS/KRAS (ratio of KD value with respect to GDP-bound HRAS wild-type protein to KD value with respect to KRAS) [2]: B (a compound having 3 or more and less than 10 is denoted as B)

CCC(CC)[C@H]1C(=O)N(C)[C@H](C(=O)N(C)C)CC(=O)N(C)[C@@H](COC)C(=O)N[C@@H]([C@@H](C)CC)C(=O)N(C)CC(=O)N(C)[C@H]2C/C=C\CCN(C2=O)[C@@H](CC2CCCCC2)C(=O)N(C)CC(=O)N[C@@H](CCc2ccc(C(F)(F)F)c(OC)c2)C(=O)N2C[C@@H](C)C[C@H]2C(=O)NC2(CC(C)(C)C2)C(=O)N1C [PP2466]
NRAS/KRAS (ratio of KD value with respect to NRAS to KD value with respect to KRAS) [1]: A (a compound having 10 or more and less than 20 is denoted as A)
HRAS/KRAS (ratio of KD value with respect to HRAS to KD value with respect to KRAS) [2]: A (a compound having 10 or more and less than 20 is denoted as A)
